Test results from US12116359B2, “EBNA1 inhibitor crystalline forms, and methods of preparing and using same” (THE WISTAR INSTITUTE, priority 2018, dated 2024).
Entries after “also recorded” stand apart in the source; their conditions may differ.

Legend:
Format in all cases: physicochemical
[1] = Variable temperature XRPD; conditions: 25-165° C.
Protocol: Samples run under non-ambient conditions were mounted on a silicon wafer with heat-conducting compound. The sample was then heated to the appropriate temperature at 30° C./min and subsequently held isothermally for 1 minute before data collection was initiated.

[2] = Stability assessment of Pattern 5 slurried in solvents at 4 or 50° C.; conditions: for Solid form recovered in stability assessment: 4 and 50° C., 8 solvents including solvent mixtures, XRPD; for Observations Overnight at 4° C. maturation / Observations Overnight at 50° C. maturation: 16 h
Protocol: The aim of this set of experiments was to test the stability of Pattern 5 in different conditions by slurring the material at either 4 or 50° C. in a range of 8 selected solvents including mixtures.
The supplied material was dissolved or suspended in the chosen solvent at r.t. Solvents were added in 10 vol. aliquots up to 30 vol. and observations were recorded; if a solution was obtained at any point then no further additions were made. Samples were kept at 4° C. or 50° C. over 16 h, and analyzed by XRPD. The solids were filtered and analyzed by XRPD. The solutions were allowed to evaporate at r.t. to afford solids which were also analyzed by XRPD.

[3] = Storage stability of solid forms at elevated temperature/humidity (XRPD, HPLC purity); conditions: 25° C./97% RH, one week; listed as Crystalline Pattern 5
[4] = as above; conditions: one week
Protocol: Purity analysis was performed on an Agilent HP1100 series system equipped with a diode array detector and using ChemStation software vB.04.03 using the method detailed in Table 1.
Amorphous (I) free acid was stored at 40° C./75% RH (open vial), 25° C./97% RH (open vial) and 60° C. (closed vial, ambient humidity) for 8 weeks.
Characterization by XRPD, ^1H NMR, TGA, DSC and storage at 40° C./75% RH for one week was carried out. Details are found in Table 10.

[5] = Gravimetric vapour sorption (GVS); conditions: for Hygroscopicity: GVS, 0-90% RH
Protocol: Sorption isotherms were obtained using a SMS DVS Intrinsic moisture sorption analyzer, controlled by DVS Intrinsic Control software. The sample temperature was maintained at 25° C. by instrument controls. The humidity was controlled by mixing streams of dry and wet nitrogen, with a total flow rate of 200 ml/min. The relative humidity was measured by a calibrated Rotronic probe (dynamic range of 1.0-100% RH), located near the sample. The weight change (mass relaxation) of the sample as a function of % RH was constantly monitored by the microbalance (accuracy ±0.005 mg). Typically 5-20 mg of sample was placed in a tared mesh stainless steel basket under ambient conditions. The sample was loaded and unloaded at 40% RH and 25° C. (typical room conditions). A moisture sorption isotherm was performed as outlined below (2 scans giving 1 complete cycle). The standard isotherm was performed at 25° C. at 10% RH intervals over a 0-90% RH range. Data analysis was carried out using Microsoft Excel. The sample was recovered after completion of the isotherm and re-analyzed by XRPD.

[6] = listed as Crystalline Pattern 5
[7] = EtOAc, solid after evaporation at r.t.
[8] = EtOAc/EtOH (1:3), solid after evaporation at r.t.
[9] = EtOAc/EtOH (3:1), solid after evaporation at r.t.

For O=C(O)c1cccc(C#Cc2ccc(COC3CCOCC3)cc2)c1-c1ccc2cc[nH]c2c1 [Pattern 5, 2-(1H-Indol-6-yl)-3-[4-(tetrahydro-pyran-4-yloxymethyl)-phenylethynyl]-benzoic acid], the “Variable temperature XRPD” value [1] was “remained as Pattern 5”, the “Variable temperature XRPD” value [1, 6] was “Remained as Pattern 5 from 25-165 °C” and the “Solid form recovered in stability assessment” value [2] was “no change in solid form”. The “Solid form recovered in stability assessment” value [2, 6] was “Pattern 5 being recovered in all cases”, the “Observations Overnight at 4° C. maturation” value ([2]; EtOAc) was “solution” and the “XRPD after stability assessment at 4° C.” value [2, 7] was “Pattern 5”. For the same compound, the “Observations Overnight at 50° C. maturation” value ([2]; EtOAc) was “solution”, the “XRPD after stability assessment at 50° C.” value (“XRPD … at 50° C.” for short) [2, 7] was “Pattern 5” and the “Observations Overnight at 4° C. maturation” value ([2]; EtOAc/EtOH (1:3)) was “solution”. The “XRPD after stability assessment at 4° C.” value [2, 8] was “Pattern 5”, the “Observations Overnight at 50° C. maturation” value ([2]; EtOAc/EtOH (1:3)) was “solution + yellow solid” and the “XRPD … at 50° C.” value [2, 8] was “Pattern 5”. The “Observations Overnight at 4° C. maturation” value ([2]; EtOAc/EtOH (3:1)) was “solution”, the “XRPD after stability assessment at 4° C.” value [2, 9] was “Pattern 5” and the “Observations Overnight at 50° C. maturation” value ([2]; EtOAc/EtOH (3:1)) was “solution + yellow solid”. The “XRPD … at 50° C.” value [2, 9] was “Pattern 5”, the “XRPD after stability assessment at 4° C.” value ([2]; EtOH) was “Pattern 5” and the “Observations Overnight at 4° C. maturation” value ([2]; EtOH) was “White Suspension”. For the same compound, the “Observations Overnight at 50° C. maturation” value ([2]; EtOH) was “solution”, the “XRPD … at 50° C.” value ([2]; EtOH, solid after evaporation at r.t.) was “Pattern 5” and the “XRPD after stability assessment at 4° C.” value ([2]; Heptane) was “Pattern 5”. For the same compound, the “Observations Overnight at 4° C. maturation” value ([2]; Heptane) was “White Suspension”, the “XRPD … at 50° C.” value ([2]; Heptane) was “Pattern 5” and the “Observations Overnight at 50° C. maturation” value ([2]; Heptane) was “White Suspension”. The “XRPD after stability assessment at 4° C.” value ([2]; IPA) was “Pattern 5”, the “Observations Overnight at 4° C. maturation” value ([2]; IPA) was “White Suspension” and the “Observations Overnight at 50° C. maturation” value ([2]; IPA) was “solution + yellow solid”. For the same compound, the “XRPD … at 50° C.” value ([2]; IPA, solid after evaporation at r.t.) was “Pattern 5”, the “XRPD after stability assessment at 4° C.” value ([2]; MIBK) was “Pattern 5” and the “Observations Overnight at 4° C. maturation” value ([2]; MIBK) was “Off-White Suspension”. For the same compound, the “Observations Overnight at 50° C. maturation” value ([2]; MIBK) was “solution”, the “XRPD … at 50° C.” value ([2]; MIBK, solid after evaporation at r.t.) was “Pattern 5” and the “XRPD after stability assessment at 4° C.” value ([2]; TBME) was “Pattern 5”. For the same compound, the “Observations Overnight at 4° C. maturation” value ([2]; TBME) was “White Suspension”, the “XRPD … at 50° C.” value ([2]; TBME) was “Pattern 5” and the “Observations Overnight at 50° C. maturation” value ([2]; TBME) was “White Suspension”. For the same compound, the “XRPD post 25° C./97% RH” value [3] was “No change in crystalline form; also recorded: Unchanged”, the “XRPD post 25° C./97% RH” value ([4]; 25° C./97% RH) was “remained unchanged by XRPD” and the “HPLC Purity after storage at 25° C./97% RH (Pharmorphix generic method)” value ([4]; 25° C./97% RH, initial purity 98.3% A.U.C.) was 98.0 % A.U.C. The “XRPD post 40° C./75% RH” value ([4]; 40° C./75% RH) was “remained unchanged by XRPD”, the “HPLC Purity after storage at 40° C./75% RH (Pharmorphix generic method)” value ([4]; 40° C./75% RH, initial purity 98.3% A.U.C.) was 98.0 % A.U.C and the “XRPD post 40° C./75% RH” value ([4]; 40° C./75% RH, listed as Crystalline Pattern 5) was “No change in crystalline form; also recorded: Unchanged”. The Hygroscopicity [5] was “non-hygroscopic”, the Hygroscopicity [5, 6] was “non-hygroscopic; also recorded: not hygroscopic” and the “XRPD after GVS” value ([5]; after 0-90% RH isotherm, listed as Crystalline Pattern 5) was “Unchanged by XRPD”. The GVS moisture uptake ([5]; between 0-90% RH, 25° C., listed as Crystalline Pattern 5) was 0.3%.
